Laboratory results taken from patent US20240317744A1, “Bicyclic Ureas As Kinase Inhibitors” (Incyte Corporation, priority 2023, published 2024).

Legend:
[1] = biological target: catalytic domain (JH1, amino acids 808-1132) of human JAK2 (Homo sapiens, UniProt O60674); experiment: JAK2 HTRF Enzyme Activity Assay; type: biochemical; settings: ATP 30 µM, 60 minutes at 25° C.; read-out: V617F ENZ 30 UM
[2] = biological target: T1, pseudo-kinase domain (JH2, amino-acids 536-812) of human V617F mutant JAK2 (Homo sapiens, UniProt O60674, F794H/V617F/W659A/W777A); experiment: JAK2 LanthaScreen JH2-V617F Binding Assay; settings: JAK2 JH2-V617F 0.26 nM, 50 nM tracer, 1 hour at 25° C.; read-out: JH2 BIND V617F
T1 construct: pseudo-kinase domain (JH2, amino-acids 536-812 with 3 surface mutations W659A, W777A, F794H); His (C); purchased BPS Bioscience 79498; host or cells: baculovirus expression system
Experimental: Example C. JAK2 LanthaScreen JH2-V617F Binding Assay
JAK2 JH2-V617F binding assay utilizes pseudo-kinase domain (JH2, amino-acids 536-812 with 3 surface mutations W659A, W777A, F794H) of human V617F mutant JAK2 expressed as C-terminal His-Avi-tagged, biotinylated protein in a baculovirus expression system (BPS Bioscience, Catalog #79498). The assay was conducted in black 384-well polystyrene plates in a final reaction volume of 20 μL. JAK2 JH2-V617F (0.26 nM) was incubated with compounds (100 nL serially diluted in DMSO) in the presence of 50 nM Fluorescent JAK2-JH2 Tracer (MedChem Express Catalog #HY-102055) and 0.25 nM Streptavidin-Tb cryptate (Cisbio Part #610SATLB) in assay buffer (50 mM Tris, pH=7.5, 10 mM MgCl2, 0.01% Brij-35, 0.1% BSA, 1 mM EGTA, 5% Glycerol and 5 mM DTT). Non-specific binding was accessed in the presence of 2 mM ATP. After incubation for 1 hour at 25° C., LanthaScreen signals were read on a PHERAstar FS plate reader (BMG LABTECH). Data was analyzed with IDBS XLfit and GraphPad Prism 5.0 software using a four parameter dose response curve to determine IC50 for each compound.

T1 sequence (O60674 536-812 V617F/W659A/W777A/F794H): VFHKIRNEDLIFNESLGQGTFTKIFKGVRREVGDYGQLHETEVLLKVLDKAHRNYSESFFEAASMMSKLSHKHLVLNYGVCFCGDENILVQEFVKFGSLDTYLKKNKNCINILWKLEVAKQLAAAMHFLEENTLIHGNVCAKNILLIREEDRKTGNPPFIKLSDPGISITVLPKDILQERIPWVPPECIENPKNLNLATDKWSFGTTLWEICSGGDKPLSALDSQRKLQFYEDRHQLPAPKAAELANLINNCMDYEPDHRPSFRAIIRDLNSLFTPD
Chain of catalytic domain (JH1, amino acids 808-1132) of human JAK2 (O60674 808-1132 limits assumed): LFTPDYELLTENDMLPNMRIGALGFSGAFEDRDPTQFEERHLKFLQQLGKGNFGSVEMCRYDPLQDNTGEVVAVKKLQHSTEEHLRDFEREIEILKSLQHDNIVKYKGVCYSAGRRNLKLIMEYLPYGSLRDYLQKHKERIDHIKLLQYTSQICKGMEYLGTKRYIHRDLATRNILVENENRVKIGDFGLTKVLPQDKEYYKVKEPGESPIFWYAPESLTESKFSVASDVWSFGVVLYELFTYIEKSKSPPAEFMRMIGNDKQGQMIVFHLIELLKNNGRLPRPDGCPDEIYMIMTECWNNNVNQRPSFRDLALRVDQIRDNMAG

| Structure (SMILES) | IC50 [1] | IC50 [2] |
| --- | --- | --- |
| [2H]C1(NC(=O)OC)CC[C@@H](n2c(=O)n(C([2H])([2H])[2H])c3cnc(Nc4ccc5c(n4)c(-c4cnn(C(F)(F)F)c4)nn5CC(C)(C)O)cc32)C1 (single isomer, unassigned) [Example 124] | > 1000 nM | ≤ 10 nM |
| [2H]C1(NC(=O)OC)CC[C@@H](n2c(=O)n(C([2H])([2H])[2H])c3cnc(Nc4ccc5c(n4)c(-c4cnn(C(F)(F)F)c4)nn5CC(C)(C)O)cc32)C1 (single isomer, unassigned) [Example 125] | > 1000 nM | ≤ 10 nM |
| [2H]C([2H])([2H])n1c(=O)n([C@@H]2CC[C@@H](NC(=O)OC)C2)c2cc(Nc3ccc4c(n3)c(-c3cnn(C(F)(F)F)c3)cn4C3CCOCC3)ncc21 [Example 109, Methyl ((1R,3R)-3-(3-(methyl-d3)-2-oxo-6-((1-(tetrahydro-2H-pyran-4-yl)-3-(1-(trifluoromethyl)-1H-pyrazol-4-yl)-1H-pyrrolo[3,2-b]pyridin-5-yl)amino)-2,3-dihydro-1H-imidazo[4,5-c]pyridin-1-yl)cyclopentyl)carbamate] | > 1000 nM | ≤ 10 nM |
| [2H]C([2H])([2H])n1c(=O)n([C@@H]2CC[C@@H](NC(=O)OC)C2)c2cc(Nc3ccc4c(n3)c(-c3cnn(C(F)(F)F)c3)cn4CC(C)(C)O)ncc21 [Example 110, Methyl ((1R,3R)-3-(6-((1-(2-hydroxy-2-methylpropyl)-3-(1-(trifluoromethyl)-1H-pyrazol-4-yl)-1H-pyrrolo[3,2-b]pyridin-5-yl)amino)-3-(methyl-d3)-2-oxo-2,3-dihydro-1H-imidazo[4,5-c]pyridin-1-yl)cyclopentyl)carbamate] | > 1000 nM | ≤ 10 nM |
| [2H]C1(NC(=O)OC)CC[C@@H](n2c(=O)n(C([2H])([2H])[2H])c3cnc(Nc4ccc5c(n4)c(-c4cnn(C(F)(F)F)c4)cn5C4CCOCC4)cc32)C1 (stereo partly drawn) [Example 111, Methyl ((3R)-3-(3-(methyl-d3)-2-oxo-6-((1-(tetrahydro-2H-pyran-4-yl)-3-(1-(trifluoromethyl)-1H-pyrazol-4-yl)-1H-pyrrolo[3,2-b]pyridin-5-yl)amino)-2,3-dihydro-1H-imidazo[4,5-c]pyridin-1-yl)cyclopentyl-1-d)carbamate] | > 1000 nM | ≤ 10 nM |
| [2H]C1(NC(=O)OC)CC[C@@H](n2c(=O)n(C([2H])([2H])[2H])c3cnc(Nc4ccc5c(n4)c(-c4cnn(C(F)(F)F)c4)cn5C4([2H])CCOCC4)cc32)C1 (stereo partly drawn) [Example 112, Methyl ((3R)-3-(3-(methyl-d3)-2-oxo-6-((1-(tetrahydro-2H-pyran-4-yl-4-d)-3-(1-(trifluoromethyl)-1H-pyrazol-4-yl)-1H-pyrrolo[3,2-b]pyridin-5-yl)amino)-2,3-dihydro-1H-imidazo[4,5-c]pyridin-1-yl)cyclopentyl-1-d)carbamate] | > 1000 nM | ≤ 10 nM |
| [2H]C1(NC(=O)OC)CC[C@@H](n2c(=O)n(C([2H])([2H])[2H])c3cnc(Nc4ccc5c(n4)c(-c4cnn(C(F)(F)F)c4)cn5C4(C#N)CC4)cc32)C1 (stereo partly drawn) [Example 113, Methyl ((3R)-3-(6-((1-(1-cyanocyclopropyl)-3-(1-(trifluoromethyl)-1H-pyrazol-4-yl)-1H-pyrrolo[3,2-b]pyridin-5-yl)amino)-3-(methyl-d3)-2-oxo-2,3-dihydro-1H-imidazo[4,5-c]pyridin-1-yl)cyclopentyl-1-d)carbamate] | > 1000 nM | ≤ 10 nM |
| [2H]C([2H])([2H])n1c(=O)n([C@@H]2CC[C@](C)(NC(=O)C3CC3)C2)c2cc(Nc3ccc4nn([C@H]5C[C@@H](O)C5)c(-c5cnn(C(F)(F)F)c5)c4n3)ncc21 [Example 121, N-((1S,3R)-3-(6-((2-((1s,3s)-3-Hydroxycyclobutyl)-3-(1-(trifluoromethyl)-1H-pyrazol-4-yl)-2H-pyrazolo[4,3-b]pyridin-5-yl)amino)-3-(methyl-d3)-2-oxo-2,3-dihydro-1H-imidazo[4,5-c]pyridin-1-yl)-1-methylcyclopentyl)cyclopropanecarboxamide] | > 1000 nM | ≤ 10 nM |
| [2H]C([2H])([2H])n1c(=O)n([C@@H]2CC[C@@H](NC(=O)OC)C2)c2cc(Nc3ccc4nn(CC(C)(C)O)c(-c5cnn(C(F)(F)F)c5)c4n3)ncc21 [Example 122, Methyl ((1R,3R)-3-(6-((2-(2-hydroxy-2-methylpropyl)-3-(1-(trifluoromethyl)-1H-pyrazol-4-yl)-2H-pyrazolo[4,3-b]pyridin-5-yl)amino)-3-(methyl-d3)-2-oxo-2,3-dihydro-1H-imidazo[4,5-c]pyridin-1-yl)cyclopentyl)carbamate] | > 1000 nM | ≤ 10 nM |
| [2H]C([2H])([2H])n1c(=O)n([C@@H]2CC[C@](C)(NC(=O)C3CC3)C2)c2cc(Nc3ccc4nn(CC(C)(C)O)c(-c5cnn(C(F)(F)F)c5)c4n3)ncc21 [Example 123, N-((1S,3R)-3-(6-((2-(2-Hydroxy-2-methylpropyl)-3-(1-(trifluoromethyl)-1H-pyrazol-4-yl)-2H-pyrazolo[4,3-b]pyridin-5-yl)amino)-3-(methyl-d3)-2-oxo-2,3-dihydro-1H-imidazo[4,5-c]pyridin-1-yl)-1-methylcyclopentyl)cyclopropanecarboxamide] | > 1000 nM | ≤ 10 nM |
| [2H]C([2H])([2H])n1c(=O)n([C@H]2CC[C@@](C)(NC(=O)C3CC3)CC2)c2cc(Nc3ccc4c(n3)c(-c3cnn(C(F)(F)F)c3)nn4[C@H]3CC[C@H](O)CC3)ncc21 [Example 126, N-((1s,4s)-4-(6-((1-((1r,4r)-4-Hydroxycyclohexyl)-3-(1-(trifluoromethyl)-1H-pyrazol-4-yl)-1H-pyrazolo[4,3-b]pyridin-5-yl)amino)-3-(methyl-d3)-2-oxo-2,3-dihydro-1H-imidazo[4,5-c]pyridin-1-yl)-1-methylcyclohexyl)cyclopropanecarboxamide] | > 1000 nM | ≤ 10 nM |
| [2H]C([2H])([2H])n1c(=O)n([C@H]2CC[C@@](C)(NC(=O)C3CC3)CC2)c2cc(Nc3cc(C(=O)N4CCOCC4)c4nn(C)c(-c5cnn(C(F)(F)F)c5)c4n3)ncc21 [Example 127, N-((1s,4s)-1-Methyl-4-(3-(methyl-d3)-6-((2-methyl-7-(morpholine-4-carbonyl)-3-(1-(trifluoromethyl)-1H-pyrazol-4-yl)-2H-pyrazolo[4,3-b]pyridin-5-yl)amino)-2-oxo-2,3-dihydro-1H-imidazo[4,5-c]pyridin-1-yl)cyclohexyl)cyclopropanecarboxamide] | > 1000 nM | ≤ 10 nM |
| [2H]C([2H])([2H])n1c(=O)n([C@@H]2CC[C@](C)(NC(=O)OC)C2)c2cc(Nc3ccc4c(n3)c(-c3cnn(C(F)(F)F)c3)nn4CC(C)(C)O)ncc21 [Example 128, Methyl ((1S,3R)-3-(6-((1-(2-hydroxy-2-methylpropyl)-3-(1-(trifluoromethyl)-1H-pyrazol-4-yl)-1H-pyrazolo[4,3-b]pyridin-5-yl)amino)-3-(methyl-d3)-2-oxo-2,3-dihydro-1H-imidazo[4,5-c]pyridin-1-yl)-1-methylcyclopentyl)carbamate] | > 1000 nM | ≤ 10 nM |
| [2H]C([2H])([2H])n1c(=O)n([C@@H]2CC[C@](C)(NC(C)=O)C2)c2cc(Nc3ccc4c(n3)c(-c3cnn(C(F)(F)F)c3)nn4CC(C)(C)O)ncc21 [Example 129, N-((1S,3R)-3-(6-((1-(2-Hydroxy-2-methylpropyl)-3-(1-(trifluoromethyl)-1H-pyrazol-4-yl)-1H-pyrazolo[4,3-b]pyridin-5-yl)amino)-3-(methyl-d3)-2-oxo-2,3-dihydro-1H-imidazo[4,5-c]pyridin-1-yl)-1-methylcyclopentyl)acetamide] | > 1000 nM | ≤ 10 nM |
| [2H]C1(NC(=O)OC)CC[C@@H](n2c(=O)n(C([2H])([2H])[2H])c3cnc(Nc4cc(C(C)(C)O)c5[nH]cc(-c6cnn(C(F)(F)F)c6)c5n4)cc32)C1 (stereo partly drawn) [Example 130, Methyl ((3R)-3-(6-((7-(2-hydroxypropan-2-yl)-3-(1-(trifluoromethyl)-1H-pyrazol-4-yl)-1H-pyrrolo[3,2-b]pyridin-5-yl)amino)-3-(methyl-d3)-2-oxo-2,3-dihydro-1H-imidazo[4,5-c]pyridin-1-yl)cyclopentyl-1-d)carbamate] | > 1000 nM | ≤ 10 nM |
| [2H]C1(NC(=O)OC)CC[C@@H](n2c(=O)n(C([2H])([2H])[2H])c3cnc(Nc4cc(C(C)(C)O)c5ccn(-c6cnn(C(F)(F)F)c6)c5n4)cc32)C1 (stereo partly drawn) [Example 131, Methyl ((3R)-3-(6-((4-(2-hydroxypropan-2-yl)-1-(1-(trifluoromethyl)-1H-pyrazol-4-yl)-1H-pyrrolo[2,3-b]pyridin-6-yl)amino)-3-(methyl-d3)-2-oxo-2,3-dihydro-1H-imidazo[4,5-c]pyridin-1-yl)cyclopentyl-1-d)carbamate] | > 1000 nM | ≤ 10 nM |
